Measurements taken from patent US9546164B2 (GENENTECH, INC., priority 2013, dated 2017).
Structures can show the parent of a compound that is named as a salt.

biological target: hNav1.7 (Homo sapiens (Human), UniProt Q15858); test: Tritiated sulfonamide competitive binding to membranes from cells expressing hNav1.7 and the β1 subunit; settings: not given;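 note: Filter-bound radioactivity counted by liquid scintillation, nonspecific binding defined with excess unlabelled ligand, IC50 fitted to percent inhibition of specific binding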
Sequence (Q15858 other isoform, or with tags, fused parts or gaps): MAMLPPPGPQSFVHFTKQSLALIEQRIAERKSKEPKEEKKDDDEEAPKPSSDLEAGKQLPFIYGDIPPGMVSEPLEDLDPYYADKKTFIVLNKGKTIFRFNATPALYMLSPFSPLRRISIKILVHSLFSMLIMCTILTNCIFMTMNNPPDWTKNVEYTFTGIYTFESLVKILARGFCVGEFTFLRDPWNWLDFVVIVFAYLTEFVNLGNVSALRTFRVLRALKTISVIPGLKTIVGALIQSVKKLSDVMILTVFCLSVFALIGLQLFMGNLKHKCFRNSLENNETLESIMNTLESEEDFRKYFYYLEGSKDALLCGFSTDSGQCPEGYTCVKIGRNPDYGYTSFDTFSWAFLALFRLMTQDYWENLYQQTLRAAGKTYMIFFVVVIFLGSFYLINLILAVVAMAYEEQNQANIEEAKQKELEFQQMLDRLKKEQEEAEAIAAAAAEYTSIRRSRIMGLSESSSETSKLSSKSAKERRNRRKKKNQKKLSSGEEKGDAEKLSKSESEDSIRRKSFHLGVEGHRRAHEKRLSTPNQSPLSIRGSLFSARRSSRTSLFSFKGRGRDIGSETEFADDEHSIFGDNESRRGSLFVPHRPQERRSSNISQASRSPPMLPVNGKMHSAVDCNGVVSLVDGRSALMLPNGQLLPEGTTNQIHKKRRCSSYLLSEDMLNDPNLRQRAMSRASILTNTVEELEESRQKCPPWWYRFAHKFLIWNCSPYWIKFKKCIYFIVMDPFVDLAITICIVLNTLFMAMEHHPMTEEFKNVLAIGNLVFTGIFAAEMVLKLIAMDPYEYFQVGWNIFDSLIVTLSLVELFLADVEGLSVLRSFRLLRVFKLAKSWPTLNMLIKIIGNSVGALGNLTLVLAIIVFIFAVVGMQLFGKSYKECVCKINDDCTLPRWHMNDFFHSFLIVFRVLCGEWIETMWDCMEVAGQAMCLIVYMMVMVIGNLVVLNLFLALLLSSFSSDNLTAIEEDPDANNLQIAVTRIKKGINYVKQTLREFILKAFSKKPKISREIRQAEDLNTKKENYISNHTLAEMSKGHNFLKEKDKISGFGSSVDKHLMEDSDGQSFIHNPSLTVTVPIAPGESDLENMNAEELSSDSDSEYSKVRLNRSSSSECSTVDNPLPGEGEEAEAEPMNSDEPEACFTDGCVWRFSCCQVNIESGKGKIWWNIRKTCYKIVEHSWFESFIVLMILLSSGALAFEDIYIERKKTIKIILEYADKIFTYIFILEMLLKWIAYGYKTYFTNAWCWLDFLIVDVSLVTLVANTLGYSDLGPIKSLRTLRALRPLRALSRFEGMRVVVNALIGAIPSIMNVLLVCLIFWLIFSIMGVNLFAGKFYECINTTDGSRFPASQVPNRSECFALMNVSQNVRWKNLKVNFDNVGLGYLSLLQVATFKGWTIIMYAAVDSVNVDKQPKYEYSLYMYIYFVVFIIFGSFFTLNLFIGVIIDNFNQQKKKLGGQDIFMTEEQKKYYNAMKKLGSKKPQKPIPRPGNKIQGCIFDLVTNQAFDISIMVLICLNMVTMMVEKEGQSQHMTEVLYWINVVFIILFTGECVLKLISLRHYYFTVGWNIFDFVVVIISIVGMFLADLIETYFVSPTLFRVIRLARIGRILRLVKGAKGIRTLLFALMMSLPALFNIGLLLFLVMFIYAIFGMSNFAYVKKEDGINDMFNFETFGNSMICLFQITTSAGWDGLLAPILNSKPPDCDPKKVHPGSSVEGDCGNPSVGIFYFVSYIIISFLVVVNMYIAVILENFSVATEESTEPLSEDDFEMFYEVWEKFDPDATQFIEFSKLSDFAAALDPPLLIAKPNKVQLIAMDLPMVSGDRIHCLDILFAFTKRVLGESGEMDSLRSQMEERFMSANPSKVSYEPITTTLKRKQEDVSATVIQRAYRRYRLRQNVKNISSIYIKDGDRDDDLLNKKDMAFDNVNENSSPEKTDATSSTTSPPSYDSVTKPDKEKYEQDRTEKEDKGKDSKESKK
Sequence (Q07699 19-218 partner): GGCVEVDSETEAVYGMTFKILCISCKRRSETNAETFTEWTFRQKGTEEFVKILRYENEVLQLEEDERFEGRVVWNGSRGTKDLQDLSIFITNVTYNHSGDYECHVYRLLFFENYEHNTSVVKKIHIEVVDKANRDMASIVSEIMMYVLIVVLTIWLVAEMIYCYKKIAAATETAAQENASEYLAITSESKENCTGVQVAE

Row | Molecule | IC50 [µM]
1 | CS(=O)(=O)NC(=O)c1cc(C2CC2)c(CN2CCC(Oc3ccc(Cl)c(C(F)(F)F)c3)CC2)cc1F [Example 519, 4-((4-(4-chloro-3-(trifluoromethyl)phenoxy)piperidin-1-yl)methyl)-5-cyclopropyl-2-fluoro-N-(methylsulfonyl)benzamide, trifluoroacetic acid salt] | 0.0081
2 | CS(=O)(=O)NC(=O)c1cc(C2CC2)c(CN2CCC(OCc3cc(Cl)cc(Cl)c3)CC2)cc1F [Example 511, 5-cyclopropyl-4-((4-((3,5-dichlorobenzyl)oxy)piperidin-1-yl)methyl)-2-fluoro-N-(methylsulfonyl)benzamide, trifluoroacetic acid salt] | 0.0235
3 | CC(c1cc(Cl)cc(Cl)c1)N1CCN(Cc2cc(F)c(C(=O)NS(=O)(=O)C3CC3)cc2C2CC2)CC1 (stereo not drawn) [Example 541, 5-cyclopropyl-N-(cyclopropylsulfonyl)-4-((4-(1-(3,5-dichlorophenyl)ethyl)piperazin-1-yl)methyl)-2-fluorobenzamide] | 0.0059
4 | Cn1nc(-c2ccccc2)cc1CN1CCC[C@@H](Oc2cc(F)c(C(=O)NS(C)(=O)=O)cc2C2CC2)C1 [Example 12, (R)-5-cyclopropyl-2-fluoro-4-((1-((1-methyl-3-phenyl-1H-pyrazol-5-yl)methyl)piperidin-3-yl)oxy)-N-(methylsulfonyl)benzamide] | 0.0113
5 | CS(=O)(=O)NC(=O)c1cc(C2CC2)c(CN2CCC(S(=O)(=O)c3cc(Cl)cc(Cl)c3)CC2)cc1F [Example 532, 5-cyclopropyl-4-((4-((3,5-dichlorophenyl)sulfonyl)piperidin-1-yl)methyl)-2-fluoro-N-(methylsulfonyl)benzamide, trifluoroacetic acid salt] | 0.221

same assay, conditions: read-out: Ligand Binding Assay; 100 pM [3H]compound, membranes with hNav1.7 and β1 subunit, 18 h, room temperature

Row | Molecule | IC50 [µM]
6 | 5-cyclopropyl-2-fluoro-N-(methylsulfonyl)-4-((1-(6-(trifluoromethyl)pyridin-2-yl)piperidin-4-yl)methoxy)benzamide [Example 592] | 0.0054
7 | CS(=O)(=O)NC(=O)c1cc(C2CC2)c(OCC2CCN(C(c3cc(Cl)cc(Cl)c3)C(F)F)CC2)cc1F (stereo in doubt) [Example 225, (S)-5-cyclopropyl-4-((1-(1-(3,5-dichlorophenyl)-2,2-difluoroethyl)piperidin-4-yl)methoxy)-2-fluoro-N-(methylsulfonyl)benzamide] | 0.017
8 | CS(=O)(=O)NC(=O)c1cc(C2CC2)c(OCC2CN([C@H](c3ccccc3)c3cccc(C#N)c3)C2)cc1F [Example 109, (R)-4-((1-((3-Cyanophenyl)(phenyl)methyl)azetidin-3-yl)methoxy)-5-cyclopropyl-2-fluoro-N-(methylsulfonyl)benzamide] | 0.0536
9 | COC[C@H](c1ccc(F)c(Cl)c1)N1CCC(COc2cc(F)c(C(=O)NS(C)(=O)=O)cc2C2CC2)CC1 (single isomer, unassigned) [Example 182] | 0.014
10 | CC(c1cc(Cl)cc(Cl)c1)N1CCC(COc2cc(F)c(C(=O)NS(=O)(=O)N3CCC3)cc2C2CC2)CC1 (stereo not drawn) [Example 103, N-(Azetidin-1-ylsulfonyl)-5-cyclopropyl-4-((1-(1-(3,5-dichlorophenyl)-ethyl)piperidin-4-yl)methoxy)-2-fluorobenzamide] | 0.00524
11 | CS(=O)(=O)NC(=O)c1cc(C2CC2)c(OCC2CN([C@H](c3ccccc3)c3ccc(F)cc3)C2)cc1F [Example 145, (R)-5-Cyclopropyl-2-fluoro-4-((1-((4-fluorophenyl)(phenyl)methyl)-azetidin-3-yl)methoxy)-N-(methylsulfonyl)benzamide] | 0.00622
12 | CCS(=O)(=O)NC(=O)c1cc(C2CC2)c(OCCC2CCN(Cc3cc(Cl)cc(Cl)c3)CC2)cc1F [Example 303, 5-cyclopropyl-4-(2-(1-(3,5-dichlorobenzyl)piperidin-4-yl)ethoxy)-N-(ethylsulfonyl)-2-fluorobenzamide, trifluoroacetic acid salt] | 0.0065
13 | COCCS(=O)(=O)NC(=O)c1cc(C2CC2)c(OCC2CN(C(c3ccccc3)c3ccccc3)C2)cc1F [Example 61, 4-((1-benzhydrylazetidin-3-yl)methoxy)-5-cyclopropyl-2-fluoro-N-((2-methoxyethyl)sulfonyl)benzamide] | 0.057
14 | CC(C)Oc1ncc(CN2CCC(COc3cc(F)c(C(=O)NS(C)(=O)=O)cc3C3CC3)CC2)cc1Cl [Example 128, 4-((1-((5-Chloro-6-isopropoxypyridin-3-yl)methyl)piperidin-4-yl)methoxy)-5-cyclopropyl-2-fluoro-N-(methylsulfonyl)benzamide] | 0.0056
15 | CS(=O)(=O)NC(=O)c1cc(C2CC2)c(OCC2CCN(C(=O)c3ccc(Cl)c(Cl)c3)CC2)cc1F [Example 232, 5-Cyclopropyl-4-((1-(3,4-dichlorobenzoyl)piperidin-4-yl)methoxy)-2-fluoro-N-(methylsulfonyl)benzamide] | 0.064
16 | COc1cc(OC(F)(F)F)ccc1CN1CCC[C@@H](Oc2cc(F)c(C(=O)NS(C)(=O)=O)cc2C2CC2)C1 [Example 438, (R)-5-cyclopropyl-2-fluoro-4-((1-(2-methoxy-4-(trifluoromethoxy)benzyl)piperidin-3-yl)oxy)-N-(methylsulfonyl)benzamide, trifluoroacetic acid salt] | 0.0095
17 | O=C(NS(=O)(=O)C1CC1)c1cc(C2CC2)c(OCC2CCN(S(=O)(=O)C3COC3)CC2)cc1F [Example 393, 5-cyclopropyl-N-(cyclopropylsulfonyl)-2-fluoro-4-((1-(oxetan-3-ylsulfonyl)piperidin-4-yl)methoxy)benzamide] | 1.38
18 | CC(c1cc(Cl)cc(Cl)c1)N1CCC(COc2cc(F)c(C(=O)NS(=O)(=O)C3CC3)cc2C2CC2)CC1 (stereo not drawn) [Example 102, 5-Cyclopropyl-N-(cyclopropylsulfonyl)-4-((1-(1-(3,5-dichlorophenyl)-ethyl)piperidin-4-yl)methoxy)-2-fluorobenzamide] | 0.00254
19 | COC[C@@H](c1ccc(Cl)cc1Cl)N1CCC(COc2cc(F)c(C(=O)NS(C)(=O)=O)cc2C2CC2)CC1 [Example 283, (R)-5-cyclopropyl-4-((1-(1-(2,4-dichlorophenyl)-2-methoxyethyl)piperidin-4-yl)methoxy)-2-fluoro-N-(methylsulfonyl)benzamide] | 0.004
20 | CS(=O)(=O)NC(=O)c1cc(C2CC2)c(OCC2CCN([C@@H](CO)c3cc(Cl)cc(Cl)c3)CC2)cc1F [Example 266] | 0.091
21 | O=C(NS(=O)(=O)C1CC1)c1cc(C2CC2)c(OCC2CCN(S(=O)(=O)c3ccc(Br)c(F)c3)CC2)cc1F [Example 369, 4-((1-((4-bromo-3-fluorophenyl)sulfonyl)piperidin-4-yl)methoxy)-5-cyclopropyl-N-(cyclopropylsulfonyl)-2-fluorobenzamide] | 0.0145
22 | Cn1nc(C(F)(F)F)c(CN2CCC(COc3cc(F)c(C(=O)NS(=O)(=O)C4CC4)cc3C3CC3)CC2)c1Cl [Example 357, 4-((1-((5-chloro-1-methyl-3-(trifluoromethyl)-1H-pyrazol-4-yl)methyl)piperidin-4-yl)methoxy)-5-cyclopropyl-N-(cyclopropylsulfonyl)-2-fluorobenzamide, trifluoroacetic acid salt] | 0.013
23 | CS(=O)(=O)NC(=O)c1cc(C2CC2)c(OCC2CCN([C@@H]3c4ccccc4C[C@H]3O)CC2)cc1F [Example 200, 5-Cyclopropyl-2-fluoro-4-((1-((1R,2R)-2-hydroxy-2,3-dihydro-1H-inden-1-yl)piperidin-4-yl)methoxy)-N-(methylsulfonyl)benzamide] | 9.4
24 | O=C(NS(=O)(=O)C1CC1)c1cc(C2CC2)c(OC[C@@H]2C[C@H]3CC[C@@H](C2)N3Cc2cc(C(F)(F)F)ccc2Cl)cc1F [Example 397, 4-(((1R,3S,5S)-8-(2-chloro-5-(trifluoromethyl)benzyl)-8-azabicyclo[3.2.1]octan-3-yl)methoxy)-5-cyclopropyl-N-(cyclopropylsulfonyl)-2-fluorobenzamide, trifluoroacetic acid salt] | 0.0057
25 | O=C(NS(=O)(=O)N1CCC1)c1cc(C2CC2)c(OCC2CCN(Cc3cc(C(F)(F)F)cc(Cl)c3F)CC2)cc1F [Example 583, N-(azetidin-1-ylsulfonyl)-4-((1-(3-chloro-2-fluoro-5-(trifluoromethyl)benzyl)piperidin-4-yl)methoxy)-5-cyclopropyl-2-fluorobenzamide] | 0.0034
26 | CS(=O)(=O)NC(=O)c1cc(C2CC2)c(OCC2CCN(Cc3cc(F)c(Br)cc3F)CC2)cc1F [Example 588, 4-((1-(4-bromo-2,5-difluorobenzyl)piperidin-4-yl)methoxy)-5-cyclopropyl-2-fluoro-N-(methylsulfonyl)benzamide] | 0.0069
27 | C[C@H](c1cc(Cl)cc(Cl)c1)N1CC(COc2cc(F)c(C(=O)NS(C)(=O)=O)cc2C2CC2)C1 [Example 121, (R)-5-Cyclopropyl-4-((1-(1-(3,5-dichlorophenyl)ethyl)azetidin-3-yl)methoxy)-2-fluoro-N-(methylsulfonyl)benzamide] | 0.0301
28 | CS(=O)(=O)NC(=O)c1cc(C2CC2)c(OCC2CCN(Cc3ncccc3C(F)(F)F)CC2)cc1F [Example 365, 5-cyclopropyl-2-fluoro-N-(methylsulfonyl)-4-((1-((3-(trifluoromethyl)pyridin-2-yl)methyl)piperidin-4-yl)methoxy)benzamide, trifluoroacetic acid salt] | 0.327

same assay, conditions: read-out: Ligand Binding Assay; 100 pM [3H]compound, membranes with hNav1.7 and β1 subunit, 18 h, room temperature; trifluoroacetic acid salt

Row | Molecule | IC50 [µM]
29 | CS(=O)(=O)NC(=O)c1cc(C2CC2)c(CN2[C@@H]3CC[C@H]2C[C@@H](Oc2ncc(C(F)(F)F)cc2Cl)C3)cc1F [Example 553, 4-(((1R,3r,5S)-3-((3-chloro-5-(trifluoromethyl)pyridin-2-yl)oxy)-8-azabicyclo[3.2.1]octan-8-yl)methyl)-5-cyclopropyl-2-fluoro-N-(methylsulfonyl)benzamide, trifluoroacetic acid salt] | 0.0061
30 | O=C(NS(=O)(=O)C1CC1)c1cc(C2CC2)c(CN2CCC(Oc3ccc(F)cc3Cl)CC2)cc1F [Example 507, trifluoroacetic acid salt] | 0.0817
